In brackets after ≈: the same amount, converted by molar mass.
Columns and labels:
[1] = test system: N. gonorrhoeae ATCC 49226; assay: MIC on GC agar plates; assay type: cell-based, Neisseria gonorrhoeae; conditions: Neisseria gonorrhoeae, ATCC49226, read-out: MIC
Description: An initial screening for bacterial inhibition was performed by the agar diffusion method. […] DMSO and TSB were included as negative controls. Gentamicin and trimethoprim sulfamethoxazole were included as a positive control for growth inhibition. Derivatives showing growth inhibition were tested at least twice before being selected for the microdilution test. For N. gonorrhoeae, the agar diffusion method was also used for screening with some modifications. […] Penicillin and tetracycline were used as controls. […] Briefly, GC agar supplemented with 1% isovitalex was prepared with increasing concentrations of the new compounds and inoculated with 10 µL of a bacterial suspension (1 × 10^4 CFU). The lowest concentration of the compound that inhibited bacterial growth was determined as the MIC. Bacterial growth was examined and verified using the oxidase test. The experiments were performed in duplicate in at least two independent assays.

60 cancer cell lines = assay: NCI-60 one-dose screen (10 μM); assay type: cell-based; conditions: Homo sapiens; one dose of 10 μM, mean over 60 cancer cell lines; read-out: Mean Growth Percent (MGP)
Description: Additionally, the mean of the growth percentages (MGP) of each compound against all the 60 cancer cell lines is also reported, which is used as one of the selection criteria to continue with tests at five concentration doses.

[2] = Hemolytic activity, spectrophotometric; assay type: cell-based, human; conditions: human, human red blood cells (huRBC), 5% hematocrit, 200 μg/mL, 37 °C

SMILES	MIC [1]	activity at 10 µM (60 cancer cell lines)	hemolysis at 24 h, 200 µg/mL [2]
COc1cc(C2CC(c3ccccc3)=Nc3c(N)nc(N)nc3N2)ccc1Oc1nc(NCCO)nc(N2CCOCC2)n1 (stereo not drawn) [28a]	4 µg/mL (≈ 6.67 µM)	98.8%	3%
Cc1ccc(/C=C/C(=O)c2ccc(S(=O)(=O)NCCNc3nc(N(C)C)nc(N4CCOCC4)n3)cc2)cc1 [23b]	–	72.3%	1.8%
COc1ccc(C2CC(c3ccc(Nc4nc(NCCO)nc(N5CCOCC5)n4)cc3)=Nc3c(N)nc(N)nc3N2)cc1 (stereo not drawn) [32c]	–	101%	–
COc1cc(C=O)ccc1Oc1nc(Nc2ccc(F)cc2)nc(N(C)C)n1 [compound 15]	≥ 500 µg/mL	64.5%	–
Nc1nc(N)c2c(n1)NC(c1ccc(F)cc1)CC(c1ccc(Nc3nc(NCCO)nc(N4CCOCC4)n3)cc1)=N2 (stereo not drawn) [32f]	2 µg/mL (≈ 3.41 µM)	89.1%	5%
COc1cc(/C=C/C(=O)c2ccc(Cl)cc2)ccc1Oc1nc(Nc2ccc(F)cc2)nc(N(C)C)n1 [21e]	–	73.1%	–
COc1cc(/C=C/C(=O)c2ccc(F)cc2)ccc1Oc1nc(Nc2ccc(F)cc2)nc(N(C)C)n1 [21f]	500 µg/mL (≈ 993 µM)	56%	0.8%
COc1cc(/C=C/C(=O)c2ccc(F)cc2)ccc1Oc1nc(NCCO)nc(N2CCOCC2)n1 [20f]	–	72.4%	–
COc1ccc(/C=C/C(=O)c2ccc(S(=O)(=O)NCCNc3nc(N(C)C)nc(N4CCOCC4)n3)cc2)cc1 [23c]	–	81.5%	0%
COc1cc(/C=C/C(=O)c2ccccc2)ccc1Oc1nc(NCCO)nc(N2CCOCC2)n1 [20a]	–	92.1%	–
COc1cc(C2CC(c3ccc(Nc4nc(NCCO)nc(Nc5ccc(Cl)cc5)n4)cc3)=Nc3c(N)nc(N)nc3N2)cc(OC)c1OC (stereo not drawn) [33d]	–	65.3%	–
COc1ccc(C(=O)/C=C/c2ccc(Oc3nc(NCCO)nc(N4CCOCC4)n3)c(OC)c2)cc1 [20c]	–	72%	–
CC(=O)c1ccc(S(=O)(=O)NCCNc2nc(Nc3ccc(F)cc3)nc(N(C)C)n2)cc1 [compound 18]	–	104%	–
Cc1ccc(C2CC(c3ccc(S(=O)(=O)NCCNc4nc(N(C)C)nc(N5CCOCC5)n4)cc3)=Nc3c(N)nc(N)nc3N2)cc1 (stereo not drawn) [30b]	–	49.9%	0.2%
CN(C)c1nc(NCCNS(=O)(=O)c2ccc(C3=Nc4c(N)nc(N)nc4NC(c4ccc(F)cc4)C3)cc2)nc(N2CCOCC2)n1 (stereo not drawn) [30f]	–	72.8%	–
COc1cc(/C=C/C(=O)c2ccc(C(F)(F)F)cc2)ccc1Oc1nc(Nc2ccc(F)cc2)nc(N(C)C)n1 [21g]	–	73.2%	–
CN(C)c1nc(NCCNS(=O)(=O)c2ccc(C3=Nc4c(N)nc(N)nc4NC(c4ccccc4)C3)cc2)nc(N2CCOCC2)n1 (stereo not drawn) [30a]	–	85.4%	0.6%
COc1ccc(C2CC(c3ccc(S(=O)(=O)NCCNc4nc(N(C)C)nc(N5CCOCC5)n4)cc3)=Nc3c(N)nc(N)nc3N2)cc1 (stereo not drawn) [30c]	–	84.3%	–
Nc1nc(N)c2c(n1)NC(c1ccc(Cl)cc1)CC(c1ccc(Nc3nc(NCCO)nc(N4CCOCC4)n3)cc1)=N2 (stereo not drawn) [32e]	1000 µg/mL (≈ 1660 µM)	74%	–
COc1ccc(C(=O)/C=C/c2ccc(Oc3nc(Nc4ccc(F)cc4)nc(N(C)C)n3)c(OC)c2)cc1 [21c]	–	48.4%	–
CN(C)c1nc(NCCNS(=O)(=O)c2ccc(C3=Nc4c(N)nc(N)nc4NC(c4ccc(Cl)cc4)C3)cc2)nc(N2CCOCC2)n1 (stereo not drawn) [30e]	–	48.9%	2.7%
COc1cc(C=O)ccc1Oc1nc(NCCO)nc(N2CCOCC2)n1 [compound 14]	–	102%	–
COc1cc(/C=C/C(=O)c2ccc(C(F)(F)F)cc2)ccc1Oc1nc(NCCO)nc(N2CCOCC2)n1 [20g]	–	77.7%	–
COc1cc(C2CC(c3ccc(Nc4nc(NCCO)nc(N5CCOCC5)n4)cc3)=Nc3c(N)nc(N)nc3N2)cc(OC)c1OC (stereo not drawn) [32d]	500 µg/mL (≈ 759 µM)	99.5%	–
COc1cc(/C=C/C(=O)c2ccc(Cl)cc2)ccc1Oc1nc(NCCO)nc(N2CCOCC2)n1 [20e]	–	94.7%	–

— article PMC11012124, “Synthesis of Novel Triazine-Based Chalcones and 8,9-dihydro-7H-pyrimido[4,5-b][1,4]diazepines as Potential Leads in the Search of Anticancer, Antibacterial and Antifungal Agents” (International Journal of Molecular Sciences, 2024)
